Data from patent US11752104B2, “Oral composition and methods for manufacturing the same and treatment” (MEDICAL AND PHARMACEUTICAL INDUSTRY TECHNOLOGY AND …, priority 2019, dated 2023).

Assay: Particle size of milled tacrolimus particles by laser particle size analyzer (Malvern 3000)
Assay type: physicochemical
Details: for D90 / D10 / D50 / D [3, 3] / D [4, 3]: Malvern 3000
Description: The milling process is conducted under the water bath at the temperature of about 4 to 18° C. for decreasing high-released energy in case of the deactivation of the milled particles.
Table 1 illustrates the statistically analyzed diameter size of the milled particles after different milling time, detected by laser particle size analyzer, Malven 3000. After milling for 90 mins, the D90 of the particles is decreased to a level of less than 400 nm. Furthermore, it was observed that preferred D90 of milled particles would be limited in the range of 100 nm to 800 nm. If D90 is less than 100 nm, the issue of particle aggregation cannot be prevented. If D90 is greater than 800 nm, the favorable effect is not significant.

In the case of `C=CC[C@@H]1/C=C(\C)C[C@H](C)C[C@H](OC)[C@H]2O[C@@](O)(C(=O)C(=O)N3CCCC[C@H]3C(=O)O[C@H](/C(C)=C/[C@@H]3CC[C@@H](O)[C@H](OC)C3)[C@H](C)[C@@H](O)CC1=O)[C@H](C)C[C@@H]2OC` [tacrolimus], the “D90 of the particles” value (after milling for 90 mins) is reported as “less than 400 nm”, the D90 (milling time 0 min (unmilled)) is reported as 17.000 μm and the D10 (milling time 0 min) is reported as 2.300 μm. The D50 (milling time 0 min) was 6.600 μm, the “D [3, 3]” value (milling time 0 min) was 4.860 μm and the “D [4, 3]” value (milling time 0 min) was 8.880 μm. The D10 (milling time 15 min) was 0.157 μm, the D50 (milling time 15 min) was 0.338 μm and the D90 (milling time 15 min) was 0.967 μm. The “D [3, 3]” value (milling time 15 min) was 0.294 μm, the “D [4, 3]” value (milling time 15 min) was 0.578 μm and the D10 (milling time 30 min) was 0.119 μm. For the same compound, the D50 (milling time 30 min) was 0.255 μm, the D90 (milling time 30 min) was 0.572 μm and the “D [3, 3]” value (milling time 30 min) was 0.219 μm. For the same compound, the “D [4, 3]” value (milling time 30 min) was 0.328 μm, the D10 (milling time 45 min) was 0.123 μm and the D50 (milling time 45 min) was 0.270 μm. For the same compound, the D90 (milling time 45 min) was 0.608 μm, the “D [3, 3]” value (milling time 45 min) was 0.230 μm and the “D [4, 3]” value (milling time 45 min) was 1.360 μm. The D10 (milling time 60 min) was 0.094 μm, the D50 (milling time 60 min) was 0.198 μm and the D90 (milling time 60 min) was 0.426 μm. For the same compound, the “D [3, 3]” value (milling time 60 min) was 0.170 μm, the “D [4, 3]” value (milling time 60 min) was 0.232 μm and the D10 (milling time 75 min) was 0.088 μm. For the same compound, the D50 (milling time 75 min) was 0.183 μm, the D90 (milling time 75 min) was 0.390 μm and the “D [3, 3]” value (milling time 75 min) was 0.158 μm. For the same compound, the “D [4, 3]” value (milling time 75 min) was 0.216 μm, the D10 (milling time 90 min) was 0.083 μm and the D50 (milling time 90 min) was 0.174 μm. For the same compound, the D90 (milling time 90 min) was 0.364 μm, the “D [3, 3]” value (milling time 90 min) was 0.149 μm and the “D [4, 3]” value (milling time 90 min) was 0.202 μm.
